Results published in patent US7645449B2, “Sensitizing cells for apoptosis by selectively blocking cytokines” (priority 2003, dated 2010).

Assays:
Type in all cases: cell-based, human
[1] = test system: RT112 bladder carcinoma cells; assay: MTS viability of RT112 cells: chemotherapy- and anti-CD95-induced apoptosis; settings: RT112 without IL-4; 50 ng/ml camptothecin or 7 μM etoposide
Text: Anticancer treatment using cytotoxic drugs mediates cell death by activating the intracellular apoptotic program. To determine whether IL-4 was able to inhibit apoptosis induced by chemotherapeutic drugs, bladder tumor cells (RT112) were pretreated for two days with different concentrations of IL-4 and subsequently exposed to camptothecin or etoposide.
Human LNCAP prostate cancer cell line and human MDA-MB-231 breast cancer cell line were obtained from the American Type Culture Collection (ATCC, Manassas, Va.). Human RT112 bladder carcinoma cell line was kindly provided by Dr. M. Cippitelli (Regina Elena Cancer Institute, Rome, Italy). Cells were grown in RPMI 1640 (Life Technologies Inc., Grand Island, N.Y.) containing 10% heat inactivated fetal bovine serum supplemented with L-Glutamine 2 mM and 100 units/ml Penicillin-Streptomycin. Cells were kept in 5% CO2 atmosphere and routinely passaged when 80-85% confluent. […] Camptothecin, cisplatin, daunorubicine, etoposide and vincristine were purchased from Sigma-Aldrich Inc. (Sain Louis, Mo.) and resuspended in DMSO (cisplatin, camptothecin and etoposide) or in H2O (daunorubicine and vincristine). Anti-CD95 agonistic antibody (clone CH11) was purchased from Upstate Biotechnology (Lake Placid, N.Y.). Monoclonal antibody anti-Bcl-XL (H5, mouse) was from Santa Cruz (Santa Cruz, Calif.), antibody anti-cFlip/FLAME-1 (NF6, mouse) was kindly provided by Dr. P.H. Krammer (German Cancer Reseach Center, Heidelberg, Germany). Antibody anti β-actin (goat) was purchased from Oncogene (Boston, Mass.):
Cell viability was determined using the CellTiter 96® AQueous One Solution Cell Proliferation Assay (Promega, Madison, Wis.), according to the manufacturer's instructions. The assay is based on reduction of 3-(4,5-dimethylthiazol-2-yl)-5-(3-carboxymethoxyphenyl)-2-(4-sulfophenyl)-2H-tetrazolium, inner salt (MTS) to a colored formazan product that is measured spectrophotometrically. Cells were seeded in 96-well tissue culture plates and incubated at 37° C. in a 5% CO2 incubator overnight. […] After two days cells were treated for 10 hours with chemotherapeutic drugs or anti-CD95, then 20 μl of MTS were added to each well. After 3 hours of incubation at 37° C. with the MTS reagent, the plates were read on a Multilabel Counter (Victor2, Wallac, Perkin-Ehmer Inc., Norwalk, Conn.) and dye absorbance was measured at 490 nm.
The percentage of apoptotic cells was derived from the percentage of viable cells that was directly calculated from the values of the MTS assay. The percentage of protection from apoptosis was determined as: % protection=100%−X
X was calculated with the formule: (C1−C2):100=(S1−S2):X where:
C1 is the viability of untreated control cells, C2 is the viability of control cells treated with the apoptotic stimulus, S1 and S2 are the viability of cells preincubated with cytoldnes or transduced with anti-apoptotic genes, untreated (S1) or treated (S2) with the apoptotic stimuli.
(A) Percentage of viable RT112 bladder carcinoma cells pre-treated for two days with increasing doses of IL-4 (5, 10, 20, 50 and 100 ng/ml) which were maintained also during incubation with chemotherapeutic drugs and exposed to 50 ng/ml camptothecin of 7 μM etoposide. […] Cell viability was determined after 24 hours using the MTS assay as described in Materials and Methods and the percentage of protection from cell death was calculated as described in Materials and Methods. The results shown are the mean ±s.d. of four independent experiments.
When the cytokine is removed by washing the percentage of protection is downmodulated.
(E) IL-4 prevents anti CD95-induced apoptosis. […] Successively, cells were incubated with 30 ng/ml anti-CD95 agonistic antibody in standard medium, Control cells (−) were stimulated with anti-CD95 in the absence of cytokine pre-treatment. The results shown are the mean ±s.d. of four independent experiments.

[2] = test system: primary neoplastic cells derived from all the histological variants of thyroid epithelial carcinomas (PTC, FTC, UTC); assay: Chemotherapy-induced cell death in freshly purified thyroid carcinoma cells compared with normal thyrocytes; settings: cisplatin 300 ng/ml, doxorubicin 5 μM, taxol 5 μM, 6, 12 and 24 h
Experimental: Such resistance persisted for some days and was generally lost after eight to ten days of in vitro culture (results not shown).
(§1) Thyroid cell purification and culture. Thyroid tissues from normal, PTC, FTC and UTC were digested for 2 hours with collagenase (1.5 mg/ml) (Gibco BRL, Grand Island, N.Y.) and hyaluronidase (20 μg/ml) (Sigma Chemical Co., St. Louis, Mo.) in DMEM. Thyrocytes were purified from the digested tissues by hematopoietic cell depletion with anti-CD45-coupled beads (Dynal, Wirral Merseyside, U.K.) and 12 hours of flask adherence, which allowed removal of other cells. After additional 12 hours of culture, thyroid cells were allowed to grow in monolayer for the immunocytochemistry or detached with trypsin+EDTA following exposure to cytokines or chemotherapeutic agents for functional and protein analyses. Thyrocytes were cultured in standard DMEM with 10% heat-inactivated FBS (Hyclone Laboratories, Logan, UK) in the presence or absence of human recombinant IL-4 (20 ng/ml), IL-10 (40 ng/ml) or IFN-γ (1000 IU/ml) (uroclone, Paignton, UK) and cisplatin (300 ng/ml), doxorubicin (5 μM) and taxol (5 μM) (Sigma) or TRAIL (Alexis, San Diego, USA). For the IL-4 and IL-10 neutralization, thyroid cancer cells were pretreated, for 48 hours, with anti-human IL-4 and IL-10 neutralizing antibodies (1 μg/ml) (R&D systems, MN, USA).
Cell death quantitation. Apoptotic events of neoplastic thyrocytes were evaluated by DNA staining and flow cytometry analysis. Thyroid cell pellets were resuspended in hypotonic fluoroclrome solution containing propidium iodide (50 μg/ml), in 0.1% sodium citrate and 0.1% Triton X-100. The percentage of hypodiploid nuclei was evaluated as previously described. Alternatively, freshly purified thyrocytes were plated in 96-bottomed plates in triplicate at 15,000 cells/well and cultured. The number of viable cells was detected by CellTiter Aqueous Assay Kit (Promega Corporation, WI, USA) adding 20 μl of solution reagent directly to culture wells, incubating for 1 hours at 37° C. and recording absorbance at 490 nm.
FIG. 1. […]

[3] = test system: Bcl-xL and Bcl-2 in normal thyrocytes; assay: Immunoblot of Bcl-xL and Bcl-2 in normal thyrocytes cultured with cytokines; settings: after 48 hours of culture; IL-4 20 ng/ml, IL-10 40 ng/ml, IFN-γ 1000 IU/ml
Experimental: as §1
Protein isolation and Western Blotting. Cell pellets were resuspended in ice-cold NP-40 lysis buffer (50 mM Tris-HCl, pH 7.5, 150 mM NaCl, 1 mM EGTA, 1% NP-40) containing 1 mM PMSF, leupeptin (1 μg/ml), pepstatin (1 μg/ml) and aprotirni (1 μg/ml). Each lysate (30 μg) was fractioned on 12% SDS-polyacrylamide gels and blotted to nitrocellulose (Hybond, Amersham, Little Chalfont Buckinghamshire England, UK). Membrane was blocked for 1 h with nonfat dry milk in TBS containing 0.05% Tween 20 and successively incubated for 2 h with Abs specific to actin (Ab-1, mouse IgM, Calbiochem, Darmstadt, Germany), Bcl-2 (124, mouse IgG1, Upstate Biotechnology Inc.), Bcl-xL (H-5, mouse IgGl, Santa Cniz Biotechnology), IL-4 (3007.11, mouse IgG1, R&D Systems, Inc., Minneapolis, USA), IL-10 (23738.111, mouse IgG2b, R&D Systems), IFN-γ (25718.111, mouse IgG2a, R&D Systems). […]

normal thyrocytes = assay: Cytokine protection of normal thyrocytes from chemotherapy-induced apoptosis; settings: 48 h pre-treatment, rhIL-4 20 ng/ml or rhIL-10 40 ng/ml, then drugs for 12 h
Experimental: Thyroid cell purification and culture. Thyroid tissues from normal, PTC, FTC and UTC were digested for 2 hours with collagenase (1.5 mg/ml) (Gibco BRL, Grand Island, N.Y.) and hyaluronidase (20 μg/ml) (Sigma Chemical Co., St. Louis, Mo.) in DMEM. Thyrocytes were purified from the digested tissues by hematopoietic cell depletion with anti-CD45-coupled beads (Dynal, Wirral Merseyside, U.K.) and 12 hours of flask adherence, which allowed removal of other cells. After additional 12 hours of culture, thyroid cells were allowed to grow in monolayer for the immunocytochemistry or detached with trypsin+EDTA following exposure to cytokines or chemotherapeutic agents for functional and protein analyses. […]
Cell death quantitation. Apoptotic events of neoplastic thyrocytes were evaluated by DNA staining and flow cytometry analysis. […] The percentage of hypodiploid nuclei was evaluated as previously described. […] The number of viable cells was detected by CellTiter Aqueous Assay Kit (Promega Corporation, WI, USA) adding 20 μl of solution reagent directly to culture wells, incubating for 1 hours at 37° C. and recording absorbance at 490 nm. […]

CC[C@@]1(O)C(=O)OCc2c1cc1n(c2=O)Cc2cc3ccccc3nc2-1 [camptothecin, reference compound]
tumor cells undergoing apoptosis in response to chemotherapeutic agents [1]: ~60%

N.N.[Cl][Pt][Cl] [cisplatin]
sensitivity of primary neoplastic thyroid cells to chemotherapeutic drugs (viability/apoptosis) [2]: considerable resistance

COc1cccc2c1C(=O)c1c(O)c3c(c(O)c1C2=O)C[C@@](O)(C(=O)CO)C[C@@H]3O[C@H]1C[C@H](N)[C@H](O)[C@H](C)O1 [doxorubicin]
sensitivity of primary neoplastic thyroid cells to chemotherapeutic drugs (viability/apoptosis) [2]: considerable resistance

COc1cc([C@@H]2c3cc4c(cc3[C@@H](O[C@@H]3O[C@@H]5CO[C@@H](C)O[C@H]5[C@H](O)[C@H]3O)[C@H]3COC(=O)[C@H]23)OCO4)cc(OC)c1O [etoposide, reference compound]
tumor cells undergoing apoptosis in response to chemotherapeutic agents [1]: ~60%

CC(=O)O[C@H]1C(=O)[C@@]2(C)[C@H]([C@H](OC(=O)c3ccccc3)[C@]3(O)C[C@H](OC(=O)[C@H](O)[C@@H](NC(=O)c4ccccc4)c4ccccc4)C(C)=C1C3(C)C)[C@]1(OC(C)=O)CO[C@@H]1C[C@@H]2O [taxol]
sensitivity of primary neoplastic thyroid cells to chemotherapeutic drugs (viability/apoptosis) [2]: considerable resistance

B1: IL-10: human recombinant IL-10 (protein, UniProt P22301 19-178, looked up)
Interleukin-10: SPGQGTQSENSCTHFPGNLPNMLRDLRDAFSRVKTFFQMKDQLDNLLLKESLLEDFKGYLGCQALSEMIQFYLEEVMPQAENQDPDIKAHVNSLGENLKTLRLRLRRCHRFLPCENKSKAVEQVKNAFNKLQEKGIYKAMSEFDIFINYIEAYMTMKIRN
Bcl-xL and Bcl-2 expression in normal thyrocytes [3]: upregulated
prevention of death of normal thyrocytes exposed to cisplatinum, doxorubicin and taxol (normal thyrocytes): drastically prevented death

B2: IFN-γ: human recombinant IFN-γ (protein, UniProt P01579 24-161, looked up)
Interferon gamma: QDPYVKEAENLKKYFNAGHSDVADNGTLFLGILKNWKEESDRKIMQSQIVSFYFKLFKNFKDDQSIQKSVETIKEDMNVKFFNSNKKKRDDFEKLTNYSVTDLNVQRKAIHELIQVMAELSPAAKTGKRKRSQMLFRG
Bcl-xL and Bcl-2 expression in normal thyrocytes [3]: not effective
